US11530206B2, “Phenylaminopyrimidine amide autophagy inhibitors and methods of use thereof” (Deciphera Pharmaceuticals, LLC, priority 2019, dated 2022)

Columns and labels:
ULK1 kinase = target: T1, ULK1 kinase (Homo sapiens, UniProt O75385, E37A/K38A); test: Biochemical assay for ULK1.3 (coupled pyruvate kinase/lactate dehydrogenase assay, peptide substrate); details: 0.1 nM ULK1 (residues 1-283), 1 mM ATP
T1 construct: purchased Beryllium
T1 sequence (O75385 1-283 E37A/K38A): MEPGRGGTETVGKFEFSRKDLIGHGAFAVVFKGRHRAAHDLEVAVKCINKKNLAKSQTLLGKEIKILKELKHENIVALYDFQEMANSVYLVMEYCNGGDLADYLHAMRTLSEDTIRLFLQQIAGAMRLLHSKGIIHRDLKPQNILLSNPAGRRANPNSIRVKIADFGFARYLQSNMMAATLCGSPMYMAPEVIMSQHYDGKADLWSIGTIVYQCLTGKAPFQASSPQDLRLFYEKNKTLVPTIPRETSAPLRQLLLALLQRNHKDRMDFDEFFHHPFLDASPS
Protocol: Biochemical Assay for ULK1.3 (SEQ. ID NO: 2)
Inhibition of ULK1 was measured by adding serial diluted test compound (final assay concentration of 1% DMSO). A decrease in absorption at 340 nm was monitored continuously for 6 hours at 30° C. on a multi-mode microplate reader (BioTek). The reaction rate was calculated using the 2-3 h time frame. The reaction rate at each concentration of compound was converted to percent inhibition using controls (i.e. reaction with no test compound and reaction with a known inhibitor) and IC50 values were calculated using software routines in Prism (GraphPad software).

ULK kinase [1] = test: pATG13 levels of mutant KRas MiaPaCa-2 cells after treatment with ULK inhibitors in combination with trametinib (ELISA); type: cell-based, human; details: MiaPaCa-2 pancreatic cancer cells, 250 nM trametinib, overnight, pS318-ATG13
Protocol: (§1) MiaPaCa-2 human pancreatic cancer cells (10000 cells/well) were added to a 384-well tissue-culture treated plate in 50 μL of pre-warmed DMEM medium supplemented with 10% characterized fetal bovine serum (Invitrogen, Carlsbad, Calif.), 100 units/mL penicillin G, 100 µg/mL streptomycin, and 2.5% Horse Serum and allowed to grow overnight at 37° C., 5% CO2, and 95% humidity. The following day, 10 μL of media containing trametinib or DMSO as a control was added to wells. […] A dose response of a test compound (0.6 μL per well) was added. DMSO (0.6 μL) was added to control wells. The plate was briefly shaken to mix wells and then incubated at 37° C. overnight. The next day, the media was aspirated and cells were washed with Dulbecco's Phosphate Buffered Saline (Gibco). Cells were lysed using MPER lysis buffer (Pierce, Rockford, Ill.) containing Halt Phosphatase and Protease Inhibitors (Pierce, Rockford, Ill.) and Phosphatase inhibitor cocktail 2 (Sigma, St. Louis, Mo.) at 4° C. for 10 minutes with shaking.
(§2) Plate wells were washed with ELISA wash buffer. Cell lysate was added to wells and incubated at room temperature for 2 hours. Plate wells were washed with ELISA wash buffer. […] Plate wells were washed with ELISA wash buffer. […] Plate wells were washed with ELISA wash buffer. […] The reaction was stopped with 2N Sulfuric Acid. The plate was analyzed at on a plate reader measuring absorbance at 450 nm and 540 nm (background). Signal was calculated by first subtracting the background absorbance at 540 nm from the absorbance at 450 nm for each well. Next, the background corrected absorbance at 450 nm from blank wells was subtracted from test wells. Data was compared to control wells to determine % ATG13 phosphorylation. GraphPad Prism was used to calculate IC50 values.

LRRK2 kinase = target: T2, LRRK2 kinase (Homo sapiens, UniProt Q5S007); test: Biochemical assay for LRRK2 (coupled pyruvate kinase/lactate dehydrogenase assay); details: 26.4 nM LRRK2 (residues 970-2528), peptide substrate, 1 mM ATP
T2 construct: purchased Thermo Fisher
T2 sequence (Q5S007 with tags, fused parts or gaps): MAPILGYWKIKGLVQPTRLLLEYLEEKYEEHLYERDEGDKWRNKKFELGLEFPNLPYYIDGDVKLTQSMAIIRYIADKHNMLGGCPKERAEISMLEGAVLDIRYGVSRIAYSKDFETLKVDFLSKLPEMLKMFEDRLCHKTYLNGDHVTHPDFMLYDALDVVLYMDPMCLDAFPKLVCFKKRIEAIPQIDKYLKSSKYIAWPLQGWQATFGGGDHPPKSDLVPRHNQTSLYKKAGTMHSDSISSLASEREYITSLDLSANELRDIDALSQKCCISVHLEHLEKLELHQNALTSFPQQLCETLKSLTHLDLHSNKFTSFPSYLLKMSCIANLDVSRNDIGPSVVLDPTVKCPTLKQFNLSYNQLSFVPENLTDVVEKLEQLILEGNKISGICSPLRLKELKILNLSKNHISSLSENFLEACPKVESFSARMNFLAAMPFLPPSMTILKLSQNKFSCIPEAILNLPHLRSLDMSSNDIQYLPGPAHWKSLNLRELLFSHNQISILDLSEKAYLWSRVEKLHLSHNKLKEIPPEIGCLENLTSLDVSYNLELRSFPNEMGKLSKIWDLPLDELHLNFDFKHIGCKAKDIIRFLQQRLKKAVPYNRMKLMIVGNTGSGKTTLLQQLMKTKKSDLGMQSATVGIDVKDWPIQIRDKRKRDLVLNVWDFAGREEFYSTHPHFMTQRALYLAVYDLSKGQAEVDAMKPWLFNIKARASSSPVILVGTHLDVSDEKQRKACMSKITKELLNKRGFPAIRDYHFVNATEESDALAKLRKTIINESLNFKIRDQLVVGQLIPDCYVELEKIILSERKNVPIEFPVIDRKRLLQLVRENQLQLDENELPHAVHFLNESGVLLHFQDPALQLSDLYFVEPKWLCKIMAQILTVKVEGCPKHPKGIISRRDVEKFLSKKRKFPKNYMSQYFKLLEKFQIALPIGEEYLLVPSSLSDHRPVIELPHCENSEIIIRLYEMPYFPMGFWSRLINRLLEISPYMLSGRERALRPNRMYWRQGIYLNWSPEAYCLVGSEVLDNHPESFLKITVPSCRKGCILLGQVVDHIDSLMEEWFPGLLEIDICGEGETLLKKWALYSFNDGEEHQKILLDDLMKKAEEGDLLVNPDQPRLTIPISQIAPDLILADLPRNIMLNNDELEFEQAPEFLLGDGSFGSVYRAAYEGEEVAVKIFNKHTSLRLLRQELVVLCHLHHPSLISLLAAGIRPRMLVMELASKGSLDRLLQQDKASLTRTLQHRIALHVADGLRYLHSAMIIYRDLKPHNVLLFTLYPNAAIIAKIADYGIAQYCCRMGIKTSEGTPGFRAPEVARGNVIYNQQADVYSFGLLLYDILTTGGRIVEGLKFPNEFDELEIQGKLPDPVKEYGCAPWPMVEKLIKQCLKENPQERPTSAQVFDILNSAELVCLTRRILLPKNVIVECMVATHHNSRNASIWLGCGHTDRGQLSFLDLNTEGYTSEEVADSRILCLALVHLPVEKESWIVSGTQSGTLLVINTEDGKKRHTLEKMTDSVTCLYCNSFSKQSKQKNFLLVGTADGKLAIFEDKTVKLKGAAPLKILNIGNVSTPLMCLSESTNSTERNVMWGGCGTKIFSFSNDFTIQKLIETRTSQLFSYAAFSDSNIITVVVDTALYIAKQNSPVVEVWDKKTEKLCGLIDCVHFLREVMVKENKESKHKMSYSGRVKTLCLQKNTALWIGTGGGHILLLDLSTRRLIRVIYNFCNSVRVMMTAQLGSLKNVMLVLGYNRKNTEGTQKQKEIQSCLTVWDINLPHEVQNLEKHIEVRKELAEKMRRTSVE
Protocol: Example 138. Biochemical Assay for LRRK2 (SEQ. ID NO: 4)
Activity of LRRK2 kinase was determined spectroscopically using a coupled pyruvate kinase/lactate dehydrogenase assay that continuously monitors the ATP hydrolysis-dependent oxidation of NADH (e.g., Schindler et al. Science (2000) 289: 1938-1942). Assays were conducted in 384-well plates (100 μL final volume) using 26.4 nM LRRK2 (Thermo Fisher), 0.1 mM peptide substrate ([…] (SEQ ID NO: 6)), 1.5 units pyruvate kinase, 2.1 units lactate dehydrogenase, 1 mM phosphoenol pyruvate, 0.28 mM NADH and 1 mM ATP in assay buffer (100 mM Tris, pH 7.5, 15 mM MgCl2, 0.5 mM DTT, 0.004% (w/v) BSA, and 0.004% Triton X-100). Inhibition of LRRK2 was measured by adding serial diluted test compound (final assay concentration of 1% DMSO). A decrease in absorption at 340 nm was monitored continuously for 6 hours at 30° C. on a multi-mode microplate reader (BioTek). The reaction rate was calculated using the 2-3 h time frame. The reaction rate at each concentration of compound was converted to percent inhibition using controls (i.e. reaction with no test compound and reaction with a known inhibitor) and IC50 values were calculated using software routines in Prism (GraphPad software).

ULK kinase [2] = test: pATG13 levels of mutant KRas A549 cells after treatment with ULK inhibitors in combination with trametinib (ELISA); type: cell-based, human; details: A549 (KRAS mutant) lung cancer cells, 250 nM trametinib, overnight, pS318-ATG13
Protocol: Cellular Inhibition of ULK Kinase Substrate ATG13 Protein pATG13 Levels of Mutant KRas A549 Cells after Treatment with ULK Inhibitors in Combination with Trametinib
as §1, with “A549 (KRAS mutant)” for “MiaPaCa-2”, “lung” for “pancreatic”, “(6,000” for “(10000”, “G, and” for “G,”, “μg/mL streptomycin” for “µg/mL streptomycin, and 2.5% Horse Serum”
as §2

SMILES	IC50 (ULK1 kinase)	IC50 (ULK kinase [1])	IC50 (LRRK2 kinase)	IC50 (ULK kinase [2])
CC(C)c1cc(N2CCN(C)CC2)ccc1Nc1ncc(C(F)(F)F)c(NCCCN2CCCCC2=O)n1 [Example 33]	1 to 25 nM	10 to 100 nM	300 to 600 nM	100 to 300 nM
CN1CCN(c2cc(C3CC3)c(Nc3ncc(C(F)(F)F)c(NCCCN4CCCCC4=O)n3)cc2F)CC1 [Example 35]	25 to 100 nM	100 to 300 nM	1 to 100 nM	100 to 300 nM
CCc1cc(N2CC[C@H](C#N)C2)ccc1Nc1ncc(C(F)(F)F)c(NCCCN2CCCCC2=O)n1 [Example 48]	100 to 500 nM	–	100 to 300 nM	–
CN1CCN(c2ccc(Nc3ncc(C(F)(F)F)c(NCCCN4CCCCC4=O)n3)c(C3CC3)c2)CC1=O [Example 49]	100 to 500 nM	–	100 to 300 nM	–
CCc1cc(N2CCN(C)CC2=O)ccc1Nc1ncc(C(F)(F)F)c(NCCCN2CCCOC2=O)n1 [Example 56]	25 to 100 nM	–	100 to 300 nM	–
CCc1cc(N2CCN(C)CC2)ccc1Nc1ncc(C2CC2)c(NCCCN2CCCOCC2=O)n1 [Example 61]	> 500 nM	–	> 600 nM	–
CCc1cc(N2CCN(C)CC2)c(F)cc1Nc1ncc(C(F)(F)F)c(NCCCN2CCCOCC2=O)n1 [Example 64]	100 to 500 nM	–	1 to 100 nM	–
CCc1cc(N2CC3CCC(C2)N3C)ccc1Nc1ncc(C(F)(F)F)c(NCCCN2CCCCC2=O)n1 [Example 68]	1 to 25 nM	10 to 100 nM	100 to 300 nM	10 to 100 nM
Cc1cc(N2C[C@H]3C[C@@H]2CO3)ccc1Nc1ncc(C(F)(F)F)c(NCCCN2CCOCCC2=O)n1 [Example 78]	100 to 500 nM	–	100 to 300 nM	–
CCc1cc(N2CCCN(C)CC2)ccc1Nc1ncc(C(F)(F)F)c(NCCCN2CCOCCC2=O)n1 [Example 79]	1 to 25 nM	10 to 100 nM	100 to 300 nM	100 to 300 nM
CN1CCN(c2ccc(Nc3ncc(Cl)c(NCCCN4CCOCCC4=O)n3)c(C3CC3)c2)CC1 [Example 82]	25 to 100 nM	100 to 300 nM	–	100 to 300 nM
CC(C)c1cc(N2CCN(C)CC2)ccc1Nc1ncc(Br)c(NCCCN2CCOCCC2=O)n1 [Example 87]	25 to 100 nM	300 to 600 nM	300 to 600 nM	300 to 600 nM
CC(C)c1cc(N2CCN(C)CC2)ccc1Nc1ncc(Cl)c(NCCCN2CCOCCC2=O)n1 [Example 88]	25 to 100 nM	100 to 300 nM	–	300 to 600 nM
CCc1cc(N2CCN(C)CC2)ccc1Nc1cc(NCCCN2CCOCCC2=O)c(C(F)(F)F)cn1 [Example 92]	1 to 25 nM	100 to 300 nM	> 600 nM	300 to 600 nM
CCc1cc(N2CC[C@@H](C#N)C2)ccc1Nc1ncc(C(F)(F)F)c(NCCCN2CCCCC2=O)n1 [Example 93]	100 to 500 nM	–	100 to 300 nM	–
CCc1cc(N2CCN(C)CC2)ccc1Nc1ncc(Br)c(NCCCN2CCCOCC2=O)n1 [Example 100]	25 to 100 nM	100 to 300 nM	–	100 to 300 nM

SMILES	IC50 (ULK1 kinase)	IC50 (ULK kinase [1])	IC50 (LRRK2 kinase)	IC50 (ULK kinase [2])
CN1CCN(c2ccc(Nc3cc(NCCCN4CCOCCC4=O)c(C(F)(F)F)cn3)c(C3CC3)c2)CC1 [Example 101]	1 to 25 nM	> 600 nM	–	300 to 600 nM
CN1CCN(c2ccc(Nc3cc(NCCCN4CCCOC4=O)c(C(F)(F)F)cn3)cc2)CC1 [Example 102]	1 to 25 nM	100 to 300 nM	–	100 to 300 nM
CN1CCN(c2ccc(Nc3cc(NCCCN4CCCCC4=O)c(C(F)(F)F)cn3)cc2)CC1 [Example 103]	1 to 25 nM	10 to 100 nM	–	10 to 100 nM
O=C1CCOCCN1CCCNc1nc(Nc2ccc(N3CCN4CCC[C@@H]4C3)cc2C2CC2)ncc1C(F)(F)F [Example 107]	1 to 25 nM	10 to 100 nM	100 to 300 nM	10 to 100 nM
CN1CCN(c2ccc(Nc3cc(NCCCN4CCOCCC4=O)c(C(F)(F)F)cn3)cc2)CC1 [Example 110]	1 to 25 nM	10 to 100 nM	–	100 to 300 nM
CN1CCN(c2ccc(Nc3ncc(C(F)(F)F)c(NCCCN4CCCOC4=O)n3)c(C3CCCC3)c2)CC1 [Example 111]	1 to 25 nM	–	100 to 300 nM	–
CN1CCN(c2ccc(Nc3ncc(C(F)(F)F)c(NCCCN4CCOCCC4=O)n3)c(C3CCCC3)c2)CC1 [Example 112]	1 to 25 nM	100 to 300 nM	100 to 300 nM	100 to 300 nM
CN1CCN(c2ccc(Nc3ncc(C(F)(F)F)c(NCCCN4CCCCC4=O)n3)c(C3CCCC3)c2)CC1 [Example 113]	1 to 25 nM	–	100 to 300 nM	–
CCc1cc(N2CCN(C)C(=O)C2)ccc1Nc1ncc(C(F)(F)F)c(NCCCN2CCCOC2=O)n1 [Example 114]	25 to 100 nM	–	1 to 100 nM	–
CCc1cc(N2CCN(C)C(=O)C2)ccc1Nc1ncc(C(F)(F)F)c(NCCCN2CCOCCC2=O)n1 [Example 115]	100 to 500 nM	–	100 to 300 nM	–
CN1C[C@@H]2C[C@H]1CN2c1ccc(Nc2ncc(C(F)(F)F)c(NCCCN3CCOCCC3=O)n2)c(C2CC2)c1 [Example 116]	25 to 100 nM	10 to 100 nM	1 to 100 nM	100 to 300 nM
CN(C)C1CN(c2ccc(Nc3ncc(Br)c(NCCCN4CCCCC4=O)n3)c(C3CC3)c2)C1 [Example 118]	25 to 100 nM	–	1 to 100 nM	–
CCc1cc(N2C[C@H]3C[C@@H]2CN3C)ccc1Nc1ncc(C(F)(F)F)c(NCCCN2CCCOC2=O)n1 [Example 123]	1 to 25 nM	–	100 to 300 nM	10 to 100 nM
CN1C2CCC1CN(c1ccc(Nc3ncc(C(F)(F)F)c(NCCCN4CCCCC4=O)n3)c(C3CC3)c1)C2 [Example 130]	25 to 100 nM	300 to 600 nM	–	300 to 600 nM
CN(C)CC1CN(c2ccc(Nc3ncc(C(F)(F)F)c(NCCCN4CCOCCC4=O)n3)c(C3CC3)c2)C1 [Example 137]	1 to 25 nM	10 to 100 nM	–	100 to 300 nM
CCc1cc(N2CC3CCC(C2)N3)ccc1Nc1ncc(C(F)(F)F)c(NCCCN2CCOCCC2=O)n1 [Example 150]	1 to 25 nM	10 to 100 nM	–	100 to 300 nM
